Data: ChEMBL document CHEMBL1201862, “PubChem BioAssay data set” (2004)
Activity calls are given as the source filed them.

Key:
[1] = biological target: Wee1-like protein kinase (Homo sapiens, UniProt P30291); test: Dose Response Cell-based Assay for Inhibitors of Wee1 Degradation. [Related pubchem assays: 1410, 1321 ]; format: functional
[2] = biological target: G2/mitotic-specific cyclin-B1 (Homo sapiens, UniProt P14635); test: Counterscreen assay for inhibitors of Wee1 degradation: dose response cell-based assay to identify inhibitors of cyclin B degradation. [Related pubchem assays: 1410, 1321 ]; format: functional
Chain of G2/mitotic-specific cyclin-B1 (P14635 whole entry): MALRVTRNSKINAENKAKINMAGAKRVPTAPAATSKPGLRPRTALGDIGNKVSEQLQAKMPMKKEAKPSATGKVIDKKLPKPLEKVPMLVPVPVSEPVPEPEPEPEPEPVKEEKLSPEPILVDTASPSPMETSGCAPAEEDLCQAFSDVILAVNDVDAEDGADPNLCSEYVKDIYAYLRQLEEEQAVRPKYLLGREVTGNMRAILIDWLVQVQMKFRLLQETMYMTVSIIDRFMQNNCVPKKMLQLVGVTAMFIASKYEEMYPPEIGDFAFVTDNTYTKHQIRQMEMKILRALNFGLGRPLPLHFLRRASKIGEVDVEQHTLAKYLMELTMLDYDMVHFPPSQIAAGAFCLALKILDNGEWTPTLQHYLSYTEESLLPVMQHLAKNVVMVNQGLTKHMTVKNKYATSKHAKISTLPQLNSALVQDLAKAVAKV

[3] = biological target: Cytochrome P450 2D6 (Homo sapiens, UniProt P10635); test: qHTS Assay for Inhibitors and Substrates of Cytochrome P450 2D6. [Related pubchem assays: 410 ]; format: ADME; conditions: read-out: Potency
Chain of Cytochrome P450 2D6 (P10635 whole entry): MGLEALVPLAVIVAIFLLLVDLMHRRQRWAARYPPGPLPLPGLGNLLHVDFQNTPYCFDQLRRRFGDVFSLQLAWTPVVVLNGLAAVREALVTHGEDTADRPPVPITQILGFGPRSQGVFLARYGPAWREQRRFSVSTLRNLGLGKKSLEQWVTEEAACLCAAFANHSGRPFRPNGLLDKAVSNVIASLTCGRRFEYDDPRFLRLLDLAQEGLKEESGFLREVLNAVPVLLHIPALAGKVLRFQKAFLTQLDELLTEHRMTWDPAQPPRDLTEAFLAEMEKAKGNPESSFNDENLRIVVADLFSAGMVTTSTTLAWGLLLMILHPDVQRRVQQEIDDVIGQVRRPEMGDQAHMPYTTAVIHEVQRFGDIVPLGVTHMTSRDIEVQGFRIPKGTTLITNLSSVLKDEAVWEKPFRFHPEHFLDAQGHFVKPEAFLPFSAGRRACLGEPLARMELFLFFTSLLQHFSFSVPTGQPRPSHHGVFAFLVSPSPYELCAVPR

[4] = biological target: T1, Rac GTPase-activating protein 1 (Homo sapiens, UniProt Q9H0H5); test: blockers of MgcRacGAP-driven Rac1 GTP hydrolysis – biochemical, ADP Hunter fluorescence, primary and confirmatory, confirmation (AID 624330); format: functional
T1 sequence (Q9H0H5 whole entry): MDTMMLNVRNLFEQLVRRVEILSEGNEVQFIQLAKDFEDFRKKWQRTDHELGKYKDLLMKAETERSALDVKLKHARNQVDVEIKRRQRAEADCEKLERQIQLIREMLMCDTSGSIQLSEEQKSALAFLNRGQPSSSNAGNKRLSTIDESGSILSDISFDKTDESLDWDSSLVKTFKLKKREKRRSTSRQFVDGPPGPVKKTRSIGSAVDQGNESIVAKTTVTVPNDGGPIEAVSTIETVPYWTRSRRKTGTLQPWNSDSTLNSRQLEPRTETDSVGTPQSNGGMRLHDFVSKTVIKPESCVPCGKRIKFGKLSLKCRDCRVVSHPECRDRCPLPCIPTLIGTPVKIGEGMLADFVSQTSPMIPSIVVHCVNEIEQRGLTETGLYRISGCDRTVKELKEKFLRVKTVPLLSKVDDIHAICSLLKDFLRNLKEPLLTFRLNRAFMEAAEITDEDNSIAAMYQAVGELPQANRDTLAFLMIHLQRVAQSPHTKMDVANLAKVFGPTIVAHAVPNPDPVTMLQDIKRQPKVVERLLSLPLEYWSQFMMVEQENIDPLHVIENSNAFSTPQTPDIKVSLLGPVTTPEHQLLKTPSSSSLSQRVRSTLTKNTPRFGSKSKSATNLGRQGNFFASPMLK

[5] = biological target: Procathepsin L (Homo sapiens, UniProt P07711)
Chain of Procathepsin L (P07711 whole entry): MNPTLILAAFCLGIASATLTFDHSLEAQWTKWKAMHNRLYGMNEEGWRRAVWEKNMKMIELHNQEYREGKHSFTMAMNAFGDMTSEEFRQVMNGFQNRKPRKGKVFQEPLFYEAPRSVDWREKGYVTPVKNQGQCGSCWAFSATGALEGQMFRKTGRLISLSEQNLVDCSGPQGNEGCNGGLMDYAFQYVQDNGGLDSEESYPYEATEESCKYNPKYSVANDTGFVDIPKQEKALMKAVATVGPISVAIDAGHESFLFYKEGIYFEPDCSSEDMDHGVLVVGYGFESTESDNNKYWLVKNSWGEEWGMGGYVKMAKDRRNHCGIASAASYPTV

[6] = biological target: Aspartyl aminopeptidase (Plasmodium falciparum 3D7, UniProt Q8I2J3)
Chain of Aspartyl aminopeptidase (Q8I2J3 whole entry): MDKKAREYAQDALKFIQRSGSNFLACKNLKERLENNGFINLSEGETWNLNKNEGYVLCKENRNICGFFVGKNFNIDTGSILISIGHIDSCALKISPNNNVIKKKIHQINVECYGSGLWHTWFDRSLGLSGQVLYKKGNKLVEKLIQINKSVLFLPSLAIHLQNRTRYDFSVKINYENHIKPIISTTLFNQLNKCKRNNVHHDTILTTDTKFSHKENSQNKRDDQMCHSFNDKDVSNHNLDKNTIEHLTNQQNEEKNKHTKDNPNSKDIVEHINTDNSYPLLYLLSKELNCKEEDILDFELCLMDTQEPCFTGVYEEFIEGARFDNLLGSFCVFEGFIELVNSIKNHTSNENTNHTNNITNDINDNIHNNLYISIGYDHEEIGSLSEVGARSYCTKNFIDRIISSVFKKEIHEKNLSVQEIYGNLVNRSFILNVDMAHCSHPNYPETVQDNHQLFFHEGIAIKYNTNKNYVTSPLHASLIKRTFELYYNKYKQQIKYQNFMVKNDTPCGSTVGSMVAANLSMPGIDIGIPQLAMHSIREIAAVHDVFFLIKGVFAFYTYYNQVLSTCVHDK

[7] = biological target: Dual specificity tyrosine-phosphorylation-regulated kinase 1A (Rattus norvegicus, UniProt Q63470); format: biochemical, Homo sapiens
[8] = biological target: Mothers against decapentaplegic homolog 3 (Homo sapiens, UniProt P84022); test: blockers of Smad3 complex formation in lysate – cell lysate, secondary confirmation, chemiluminescent ELISA, HEK293 lysate, dose response (AID 1058); format: functional
Chain of Mothers against decapentaplegic homolog 3 (P84022 whole entry): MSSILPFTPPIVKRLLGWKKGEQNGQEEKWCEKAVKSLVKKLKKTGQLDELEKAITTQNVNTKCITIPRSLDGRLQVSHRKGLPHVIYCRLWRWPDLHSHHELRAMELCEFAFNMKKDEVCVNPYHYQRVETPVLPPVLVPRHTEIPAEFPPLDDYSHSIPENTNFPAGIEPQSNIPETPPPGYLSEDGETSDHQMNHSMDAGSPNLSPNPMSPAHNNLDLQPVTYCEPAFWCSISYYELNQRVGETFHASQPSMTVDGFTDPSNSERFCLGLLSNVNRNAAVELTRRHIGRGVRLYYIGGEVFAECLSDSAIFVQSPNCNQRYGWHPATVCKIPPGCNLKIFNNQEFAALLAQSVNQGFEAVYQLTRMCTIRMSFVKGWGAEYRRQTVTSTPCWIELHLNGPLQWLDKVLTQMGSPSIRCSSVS

[9] = biological target: T2, High affinity choline transporter 1 (Homo sapiens, UniProt Q9GZV3); test: human choline transporter blockers, potency – cell-based, 5-point CRC, membrane potential dye, dose response (AID 504840); format: functional
T2 sequence (Q9GZV3 whole entry): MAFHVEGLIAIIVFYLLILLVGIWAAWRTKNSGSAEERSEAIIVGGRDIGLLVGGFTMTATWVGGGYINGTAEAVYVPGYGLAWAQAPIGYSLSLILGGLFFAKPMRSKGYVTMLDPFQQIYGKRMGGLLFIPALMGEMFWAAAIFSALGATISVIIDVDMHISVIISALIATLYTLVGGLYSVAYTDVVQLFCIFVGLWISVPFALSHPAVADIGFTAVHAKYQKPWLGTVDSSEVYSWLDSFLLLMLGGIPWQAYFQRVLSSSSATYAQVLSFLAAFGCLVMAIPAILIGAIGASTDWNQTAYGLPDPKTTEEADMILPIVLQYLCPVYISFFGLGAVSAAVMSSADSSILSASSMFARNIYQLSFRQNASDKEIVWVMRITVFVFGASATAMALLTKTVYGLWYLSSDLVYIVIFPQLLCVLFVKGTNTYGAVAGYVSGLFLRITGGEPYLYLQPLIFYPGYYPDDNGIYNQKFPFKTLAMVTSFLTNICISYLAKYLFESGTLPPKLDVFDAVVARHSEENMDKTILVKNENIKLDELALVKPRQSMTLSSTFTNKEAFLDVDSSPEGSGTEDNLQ

[10] = biological target: Heat shock protein HSP 90-alpha (Homo sapiens, UniProt P07900); format: functional, organism-based
[11] = biological target: C-C chemokine receptor type 6 (Homo sapiens, UniProt P51684); test: antagonism of CCR6 beta-arrestin recruitment – cell-based, luminescent beta-arrestin readout, dose response (AID 504728); format: functional
[12] = biological target: Beta-galactosidase (Escherichia coli, UniProt Q8VNN2); test: detection-enzyme interference by beta-gal modulators – biochemical, E. coli enzyme, set 3, artefact control for CCR6 antagonist project, dose response (AID 504712); format: functional
Chain of Beta-galactosidase (Q8VNN2 whole entry): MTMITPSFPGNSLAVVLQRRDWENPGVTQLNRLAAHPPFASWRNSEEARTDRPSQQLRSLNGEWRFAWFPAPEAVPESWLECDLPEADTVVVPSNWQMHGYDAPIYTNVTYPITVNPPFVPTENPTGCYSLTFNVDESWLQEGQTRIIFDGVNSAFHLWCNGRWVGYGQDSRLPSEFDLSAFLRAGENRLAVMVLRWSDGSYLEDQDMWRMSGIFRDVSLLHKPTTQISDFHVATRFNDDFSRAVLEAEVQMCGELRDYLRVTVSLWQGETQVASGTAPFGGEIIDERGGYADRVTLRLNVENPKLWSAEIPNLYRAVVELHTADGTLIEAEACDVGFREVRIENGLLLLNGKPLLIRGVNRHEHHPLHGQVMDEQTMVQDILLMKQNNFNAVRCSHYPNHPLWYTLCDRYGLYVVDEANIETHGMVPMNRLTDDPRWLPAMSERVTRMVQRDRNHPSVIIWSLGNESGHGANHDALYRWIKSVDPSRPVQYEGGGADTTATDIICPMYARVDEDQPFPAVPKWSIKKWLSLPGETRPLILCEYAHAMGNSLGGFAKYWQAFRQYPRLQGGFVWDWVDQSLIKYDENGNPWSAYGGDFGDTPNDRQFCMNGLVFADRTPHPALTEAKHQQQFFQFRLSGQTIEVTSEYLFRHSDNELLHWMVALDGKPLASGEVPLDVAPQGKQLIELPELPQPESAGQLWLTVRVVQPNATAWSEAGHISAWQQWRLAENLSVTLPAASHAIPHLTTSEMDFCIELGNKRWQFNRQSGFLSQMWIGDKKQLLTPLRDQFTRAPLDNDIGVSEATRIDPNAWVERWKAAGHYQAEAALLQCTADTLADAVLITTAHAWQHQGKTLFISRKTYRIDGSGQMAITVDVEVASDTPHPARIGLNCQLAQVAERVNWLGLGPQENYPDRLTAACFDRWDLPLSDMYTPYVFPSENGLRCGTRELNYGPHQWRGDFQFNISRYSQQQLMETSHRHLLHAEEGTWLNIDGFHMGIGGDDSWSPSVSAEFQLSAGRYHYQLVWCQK

[13] = biological target: Large T antigen (Simian virus 40, UniProt P03070); format: functional, Betapolyomavirus macacae;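 also: Confirmatory-stage PubChem screen for compounds that inhibit SV40 T antigen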
[14] = biological target: NS3 (Hepatitis C virus, UniProt A3EZJ3); test: PubChem AID 2173; set-up: species or system Hepacivirus hominis
[15] = alpha-synuclein stem-loop luciferase translation blockers – H4 neuroglioma cells, luminescence, confirmation (AID 1988); format: functional, cell-based
[16] = luciferase reporter signal suppression in cells – H4 neuroglioma cells, luminescence, dose response (AID 1990); format: functional, cell-based
[17] = luciferase reporter signal reduction – luminescence, H4-C neuroglioblastoma cells, dose response (AID 2458); format: functional, cell-based;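 also: H4 neuroglioblastoma cells stably carrying a luciferase reporter gene fusion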
[18] = alpha-synuclein stem-loop translation blockers – luminescence, H4 neuroglioblastoma cells, dose confirmation, confirmation (AID 2454); format: functional, cell-based;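 also: H4 neuroglioblastoma cells carrying an alpha-synuclein 5'UTR luciferase reporter; potency for inhibition of the luciferase signal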
[19] = cells; format: functional, cell-based
[20] = Luminescence Cell-Based Dose Response HTS to Identify Inhibitors of 5'UTR Stem-Loop Driven Prion Protein mRNA Translation in H4 Neuroglioblastoma Cells. [Related pubchem assays: 1827 (Project Summary), 1813 (Primary HTS)]; format: functional
[21] = biological target: Lysosomal acid glucosylceramidase (Homo sapiens, UniProt P04062); test: Dose response cell-based high throughput screening assay to identify enhancers of beta-glucosidase activity. [Related pubchem assays: 784 ]; format: functional
Chain of Lysosomal acid glucosylceramidase (P04062 whole entry): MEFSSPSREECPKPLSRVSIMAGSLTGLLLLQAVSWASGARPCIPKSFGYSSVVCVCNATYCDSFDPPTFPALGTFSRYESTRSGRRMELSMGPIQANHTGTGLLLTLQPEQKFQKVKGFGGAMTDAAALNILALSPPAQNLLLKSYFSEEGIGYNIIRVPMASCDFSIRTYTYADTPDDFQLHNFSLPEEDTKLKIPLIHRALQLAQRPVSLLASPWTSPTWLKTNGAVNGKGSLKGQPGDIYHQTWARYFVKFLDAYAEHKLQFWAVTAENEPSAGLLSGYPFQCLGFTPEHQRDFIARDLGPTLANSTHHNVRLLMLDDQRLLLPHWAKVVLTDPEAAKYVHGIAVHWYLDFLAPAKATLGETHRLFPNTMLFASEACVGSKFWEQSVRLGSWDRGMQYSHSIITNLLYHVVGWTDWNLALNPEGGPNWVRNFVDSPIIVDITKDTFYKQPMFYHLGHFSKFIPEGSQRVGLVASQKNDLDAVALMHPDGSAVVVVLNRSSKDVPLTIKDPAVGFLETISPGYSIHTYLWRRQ

[22] = biological target: T3, Eukaryotic translation initiation factor 2-alpha kinase 3 (Homo sapiens, UniProt Q9NZJ5); test: Counterscreen assay for PERK inhibitors: Dose response cell-based high throughput screening assay to measure inhibition of PERK at 6 hours. [Related pubchem assays: 1522, 1416 ]; format: functional
T3 sequence (Q9NZJ5 whole entry): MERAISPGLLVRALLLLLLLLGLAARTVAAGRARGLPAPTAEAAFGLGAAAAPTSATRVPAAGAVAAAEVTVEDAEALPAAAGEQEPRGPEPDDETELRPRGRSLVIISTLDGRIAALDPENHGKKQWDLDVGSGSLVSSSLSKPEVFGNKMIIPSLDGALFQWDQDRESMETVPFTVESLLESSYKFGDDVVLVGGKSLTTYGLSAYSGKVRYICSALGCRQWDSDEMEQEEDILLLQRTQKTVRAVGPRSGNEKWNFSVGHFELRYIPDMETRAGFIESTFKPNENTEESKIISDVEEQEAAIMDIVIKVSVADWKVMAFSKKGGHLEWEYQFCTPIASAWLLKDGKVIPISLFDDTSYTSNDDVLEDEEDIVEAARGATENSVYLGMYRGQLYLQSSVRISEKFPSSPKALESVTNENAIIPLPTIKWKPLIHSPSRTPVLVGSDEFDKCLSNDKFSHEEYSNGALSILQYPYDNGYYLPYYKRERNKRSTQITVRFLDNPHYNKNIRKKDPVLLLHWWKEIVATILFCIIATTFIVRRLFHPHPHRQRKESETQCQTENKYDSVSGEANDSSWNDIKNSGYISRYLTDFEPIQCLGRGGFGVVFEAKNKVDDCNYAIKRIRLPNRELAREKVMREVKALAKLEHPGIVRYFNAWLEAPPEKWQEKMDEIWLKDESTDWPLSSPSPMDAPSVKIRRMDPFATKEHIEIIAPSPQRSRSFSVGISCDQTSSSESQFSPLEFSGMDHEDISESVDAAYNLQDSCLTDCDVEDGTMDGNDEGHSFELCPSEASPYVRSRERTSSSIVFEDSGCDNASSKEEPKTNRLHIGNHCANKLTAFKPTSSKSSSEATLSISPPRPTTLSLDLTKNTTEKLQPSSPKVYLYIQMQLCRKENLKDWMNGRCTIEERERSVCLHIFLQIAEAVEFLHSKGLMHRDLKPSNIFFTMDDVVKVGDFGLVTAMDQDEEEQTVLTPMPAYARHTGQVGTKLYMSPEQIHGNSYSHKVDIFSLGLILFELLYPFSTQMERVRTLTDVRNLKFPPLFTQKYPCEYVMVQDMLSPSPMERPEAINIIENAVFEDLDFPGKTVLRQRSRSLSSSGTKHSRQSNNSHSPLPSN

[23] = biological target: T3, Eukaryotic translation initiation factor 2-alpha kinase 3; test: Dose response cell-based high-throughput screening assay to measure PERK inhibition. [Related pubchem assays: 1416 ]; format: functional

## CCN(CC)S(=O)(=O)c1ccc(C(=O)NCCc2ccccn2)cc1
[1]
  EC50: > 49.7 µM (not active)
[2]
  EC50: > 49.7 µM (not active)

## COc1cccc(-c2oc3ccccc3c(=O)c2O)c1
[3]
  AC50: 31.6 µM (inconclusive)

## Oc1ccc(-c2csc(-c3cccnc3)n2)cc1O
[4]
  IC50: 9.47 µM (active)
[5]
  IC50: > 59.6 µM (not active)
[6]
  IC50: 1.81 µM (active)
[7]
  AC50: 7.37 µM (active)

## COc1cc(C(c2cc3c(cc2O)OCO3)N2CCOCC2)ccc1O (stereo not drawn)
[8]
  IC50: 10.1 µM (not active)

## O=[N+]([O-])c1cc(Cc2ccccc2)cc(/C=N/c2ccc(N3CCOCC3)cc2)c1O
[9]
  IC50: 9.12 µM (active)
[10]
  AC50: 4.32 µM (active)
[11]
  IC50: > 66.6 µM (inactive)
[12]
  IC50: > 66.6 µM (inactive)
[13]
  IC50: 2.64 µM (active)
[14]
  IC50: 7.65 µM (active)

## CC(=O)O[C@@H]1/C=C/[C@](C)(O)C[C@@H](C)C/C=C/[C@H]2[C@H](O)C(C)=C(C)[C@H]3[C@H](Cc4ccccc4)NC(=O)[C@@]123
[15]
  EC50: < 0.1 µM (active)
[16]
  EC50: 0.208 µM (active)
[17]
  EC50: 0.577 µM (active)
[18]
  EC50: 0.397 µM (active)
[19]
  EC50: 0.895 µM (active)
[20]
  EC50: 28.2 µM (active)

## COC(=O)c1cn(NC(=O)c2ccncc2)c(=O)c2ccccc12
[21]
  EC50: > 50 µM (not active)

## Cc1c2cnn(-c3ccccc3)c(=O)c2c(C)n1CCCC(=O)NCCN1CCN(C)CC1
[22]
  EC50: > 55.7 µM (not active)
[23]
  EC50: > 55.7 µM (not active)
